Laboratory results published in patent US9567329B2, “High penetration prodrug compositions of 1H-imidazo[4,5-c]quinolin-4-amines and 1H-imidazo[4,5-c]quinolin-4-amine-related compounds and uses thereof” (Techfields Pharma Co., Ltd, priority 2007, dated 2017).
One block for each molecule: values may come before it.

Legend:
[1] = In vitro penetration rate across human skin in modified Franz cells; assay type: in vitro ADME; conditions: 3% suspension in ethanol/pH 7.4 phosphate buffer (0.2 M) 70/30
Protocol: Penetration rates of HPPs and their parent drugs through human skin were measured in vitro by modified Franz cells. A Franz cell had two chambers, the top sample chamber and the bottom receiving chamber. The human skin tissue (360-400 μm thick) that separated the top and the receiving chambers was isolated from the anterior or posterior thigh areas.
A compound tested (0.5 mL, 3% in a mixture of ethanol and phosphate buffer (0.2M, pH 7.4) (v/v, 70/30)) was added to the sample chamber of a Franz cell. The receiving chamber contains 2 ml of 2% bovine serum albumin in saline which was stirred at 600 rpm. The amount of the tested compound penetrating the skin was determined by high-performance liquid chromatography (HPLC) method.
The lowest detectable apparent flux values in this method was 1 μg/cm^2/h.

[2] = tested on: herpes simplex virus Type I; assay: Anti-Herpes activity, treated for 3 days before HSV infection; assay type: in vivo; conditions: guinea pigs
Protocol: (§1) The evaluation of anti-Herpes activity of these prodrugs was carried out using the method described by Kern, et al. [Antimicrob. Agents Chemother. 14, 817, (1978)]. In each experiment, female guinea pigs (n=10) were anesthetized. […] Virus replication was monitored by determining the amount of virus recovered with vaginal swabs taken on day 7 after infection. […] The percent Lesion Inhibition was calculated as follows: 100-[(Sum of maximum lesion scores of treated group divided by the Sum of the scores of infected control)×100] (Table 5).

[3] = tested on: herpes simplex virus Type II; assay: as above; assay type: in vivo; conditions: guinea pigs
Protocol: as §1

[4] = tested on: herpes simplex virus Type I; assay: Anti-Herpes activity, treated for 5 days, first treatment just after HSV infection; assay type: in vivo; conditions: guinea pigs
Protocol: (§2) The evaluation of anti-Herpes activity of these prodrugs was carried out using the method described by Kern, et al. [Antimicrob. Agents Chemother. 14, 817, (1978)].
(§3) In the second experiment, female guinea pigs (n=10) were anesthetized. Herpes simplex virus (Type I or Type II, about 10^5 plaque forming units were used) was applied intravaginally to the guinea pigs using a cotton swab. […] Virus replication was monitored by determining the amount of virus recovered with vaginal swabs taken on day 7 after infection. External lesions were scored daily for ten days using the following scale: 0, no lesion; 1, redness and swelling; 2, a few small vesicles; 3, several large vesicles; 4, large ulcers and necrosis; and 5, paralysis. The percent Lesion Inhibition was calculated as follows: 100−[(Sum of maximum lesion scores of treated group divided by the Sum of the scores of infected control)×100] (Table 6).

[5] = tested on: herpes simplex virus Type II; assay: as above; assay type: in vivo; conditions: guinea pigs
Protocol: as §2, §3

[6] = tested on: herpes simplex virus Type I; assay: Anti-Herpes activity, treated for 5 days, first treatment 5 days after HSV infection; assay type: in vivo; conditions: guinea pigs
Protocol: as §2
(§4) In the third experiment, female guinea pigs (n=10) were anesthetized. The guinea pigs were then infected with herpes simplex virus (type I or Type II, about 10^5 plaque forming units were used) intravaginally using a cotton swab. […] External lesions were scored daily for ten days using the following scale: 0, no lesion; 1, redness and swelling; 2, a few small vesicles; 3, several large vesicles; 4, large ulcers and necrosis; and 5, paralysis. The percent Lesion Inhibition was calculated as follows: 100−[(Sum of maximum lesion scores of treated group divided by the Sum of the scores of infected control)×100] (Table 7).

[7] = tested on: herpes simplex virus Type II; assay: as above; assay type: in vivo; conditions: guinea pigs
Protocol: as §2, §4

interferon production [8] = assay: Interferon inducing activity in guinea pigs (serum protection of fibroblasts from mengovirus); assay type: in vivo; conditions: serum 18 hours after treatment
interferon production [9] = assay: as above; assay type: in vivo; conditions: serum 18 hours after treatment; remark: listed apart in the source
Protocol: Without being bound by any mechanism, the ability to induce interferon production of the pro-drugs of the invention was evaluated in guinea pigs (n=10). Untreated guinea pigs provided controls.
Each test drug was administered to real back skin of a guinea pig at a specific dose of about 0.5-4.5 mg/kg respectively.
Each treated and control guinea pig was bled 18 hours after drug treatment and its serum was assayed for interferon activity. The serum was diluted and incubated with guinea pig fibroblast cells at 37° C. overnight in 96 well microtiter plates. The incubated cells were then challenged with an inoculum of mengovirus that was sufficient to kill untreated cells in two days. Two days after such challenge, the cells were examined both microscopically and after staining with crystal violet to determine whether the cells remained intact.
Table 4 contains the results of the study with activity/ml indicating the highest dilute on of serum that protected cells from virus challenge. Untreated guinea pigs provided controls.

[10] = 0.5 mg/kg once per day for 3 days before HSV infection
[11] = 1.5 mg/kg once per day for 3 days before HSV infection
[12] = 4.5 mg/kg once per day for 3 days before HSV infection
[13] = 0.5 mg/kg once per day for 5 days
[14] = 1.5 mg/kg once per day for 5 days
[15] = 4.5 mg/kg once per day for 5 days

In vitro Penetration Rate of Parent compounds (apparent flux) [1]: 0.005 mg/cm^2/h
SMILES: Cl.Nc1nc2ccccc2c2c1ncn2Cc1ccccc1 [1-benzyl-1H-imidazo[4,5-c]quinolin-4-amine hydrochloride, reference compound]

In vitro Penetration Rate of Parent compounds (apparent flux) [1]: 0.005 mg/cm^2/h
SMILES: CCCCn1cnc2c(N)nc3ccccc3c21.Cl [1-butyl-1H-imidazo[4,5-c]quinolin-4-amine hydrochloride, reference compound]

SMILES: CCCCCCn1cnc2c(N)nc3ccccc3c21.Cl [1-hexyl-1H-imidazo[4,5-c]quinolin-4-amine hydrochloride, reference compound]
% Lesion inhibition of the parent drug, intravaginal, Herpes type I [2, 10]: 4%
% Lesion inhibition of the parent drug, transdermal, Herpes type I [2, 10]: 2%
% Lesion inhibition of the parent drug, intravaginal, Herpes type I [2, 11]: 16%
% Lesion inhibition of the parent drug, transdermal, Herpes type I [2, 11]: 3%
% Lesion inhibition of the parent drug, intravaginal, Herpes type I [2, 12]: 80%
% Lesion inhibition of the parent drug, transdermal, Herpes type I [2, 12]: 42%
% Lesion inhibition of the parent drug, intravaginal, Herpes type II [3, 10]: 5%
% Lesion inhibition of the parent drug, transdermal, Herpes type II [3, 10]: 2%
% Lesion inhibition of the parent drug, intravaginal, Herpes type II [3, 11]: 18%
% Lesion inhibition of the parent drug, transdermal, Herpes type II [3, 11]: 3%
% Lesion inhibition of the parent drug, intravaginal, Herpes type II [3, 12]: 81%
% Lesion inhibition of the parent drug, transdermal, Herpes type II [3, 12]: 45%
% Lesion inhibition of the parent drug, intravaginal, Herpes type I [4, 13]: 2%
% Lesion inhibition of the parent drug, transdermal, Herpes type I [4, 13]: 2%
% Lesion inhibition of the parent drug, intravaginal, Herpes type I [4, 14]: 11%
% Lesion inhibition of the parent drug, transdermal, Herpes type I [4, 14]: 5%
% Lesion inhibition of the parent drug, intravaginal, Herpes type I [4, 15]: 68%
% Lesion inhibition of the parent drug, transdermal, Herpes type I [4, 15]: 43%
% Lesion inhibition of the parent drug, intravaginal, Herpes type II [5, 13]: 2%
% Lesion inhibition of the parent drug, transdermal, Herpes type II [5, 13]: 2%
% Lesion inhibition of the parent drug, intravaginal, Herpes type II [5, 14]: 11%
% Lesion inhibition of the parent drug, transdermal, Herpes type II [5, 14]: 6%
% Lesion inhibition of the parent drug, intravaginal, Herpes type II [5, 15]: 71%
% Lesion inhibition of the parent drug, transdermal, Herpes type II [5, 15]: 41%
% Lesion inhibition of the parent drug, intravaginal, Herpes type I [6, 13]: 2%
% Lesion inhibition of the parent drug, transdermal, Herpes type I [6, 13]: 2%
% Lesion inhibition of the parent drug, intravaginal, Herpes type I [6, 14]: 2%
% Lesion inhibition of the parent drug, transdermal, Herpes type I [6, 14]: 2%
% Lesion inhibition of the parent drug, intravaginal, Herpes type I [6, 15]: 35%
% Lesion inhibition of the parent drug, transdermal, Herpes type I [6, 15]: 18%
% Lesion inhibition of the parent drug, intravaginal, Herpes type II [7, 13]: 2%
% Lesion inhibition of the parent drug, transdermal, Herpes type II [7, 13]: 2%
% Lesion inhibition of the parent drug, intravaginal, Herpes type II [7, 14]: 2%
% Lesion inhibition of the parent drug, transdermal, Herpes type II [7, 14]: 2%
% Lesion inhibition of the parent drug, intravaginal, Herpes type II [7, 15]: 37%
% Lesion inhibition of the parent drug, transdermal, Herpes type II [7, 15]: 21%
Interferon level of the parent drug, intravaginal (interferon production [8]; 0.5 mg/kg once): 286 activity/ml
Interferon level of the parent drug, transdermal (interferon production [8]; 0.5 mg/kg once): 178 activity/ml
Interferon level of the parent drug, intravaginal (interferon production [8]; 1.5 mg/kg once): 1,562 activity/ml
Interferon level of the parent drug, transdermal (interferon production [8]; 1.5 mg/kg once): 565 activity/ml
Interferon level of the parent drug, intravaginal (interferon production [8]; 4.5 mg/kg once): 24,786 activity/ml
Interferon level of the parent drug, transdermal (interferon production [8]; 4.5 mg/kg once): 1,945 activity/ml

SMILES: CCCCCCn1cnc2c(NC(=O)CN(C)C)nc3ccccc3c21.Cl [N,N-dimethylglycine 1-n-hexyl-1H-imidazo[4,5-c]quinolin-4-amide hydrochloride]
% Lesion inhibition of the HPP, intravaginal, Herpes type I [2, 10]: 67%
% Lesion inhibition of the HPP, transdermal, Herpes type I [2, 10]: 38%
% Lesion inhibition of the HPP, intravaginal, Herpes type I [2, 11]: 91%
% Lesion inhibition of the HPP, transdermal, Herpes type I [2, 11]: 67%
% Lesion inhibition of the HPP, intravaginal, Herpes type I [2, 12]: 95%
% Lesion inhibition of the HPP, transdermal, Herpes type I [2, 12]: 91%
% Lesion inhibition of the HPP, intravaginal, Herpes type II [3, 10]: 68%
% Lesion inhibition of the HPP, transdermal, Herpes type II [3, 10]: 40%
% Lesion inhibition of the HPP, intravaginal, Herpes type II [3, 11]: 90%
% Lesion inhibition of the HPP, transdermal, Herpes type II [3, 11]: 68%
% Lesion inhibition of the HPP, intravaginal, Herpes type II [3, 12]: 95%
% Lesion inhibition of the HPP, transdermal, Herpes type II [3, 12]: 93%
% Lesion inhibition of the HPP, intravaginal, Herpes type I [4, 13]: 67%
% Lesion inhibition of the HPP, transdermal, Herpes type I [4, 13]: 37%
% Lesion inhibition of the HPP, intravaginal, Herpes type I [4, 14]: 91%
% Lesion inhibition of the HPP, transdermal, Herpes type I [4, 14]: 73%
% Lesion inhibition of the HPP, intravaginal, Herpes type I [4, 15]: 95%
% Lesion inhibition of the HPP, transdermal, Herpes type I [4, 15]: 90%
% Lesion inhibition of the HPP, intravaginal, Herpes type II [5, 13]: 68%
% Lesion inhibition of the HPP, transdermal, Herpes type II [5, 13]: 38%
% Lesion inhibition of the HPP, intravaginal, Herpes type II [5, 14]: 90%
% Lesion inhibition of the HPP, transdermal, Herpes type II [5, 14]: 75%
% Lesion inhibition of the HPP, intravaginal, Herpes type II [5, 15]: 95%
% Lesion inhibition of the HPP, transdermal, Herpes type II [5, 15]: 91%
% Lesion inhibition of the HPP, intravaginal, Herpes type I [6, 13]: 31%
% Lesion inhibition of the HPP, transdermal, Herpes type I [6, 13]: 28%
% Lesion inhibition of the HPP, intravaginal, Herpes type I [6, 14]: 62%
% Lesion inhibition of the HPP, transdermal, Herpes type I [6, 14]: 52%
% Lesion inhibition of the HPP, intravaginal, Herpes type I [6, 15]: 83%
% Lesion inhibition of the HPP, transdermal, Herpes type I [6, 15]: 82%
% Lesion inhibition of the HPP, intravaginal, Herpes type II [7, 13]: 28%
% Lesion inhibition of the HPP, transdermal, Herpes type II [7, 13]: 25%
% Lesion inhibition of the HPP, intravaginal, Herpes type II [7, 14]: 65%
% Lesion inhibition of the HPP, transdermal, Herpes type II [7, 14]: 55%
% Lesion inhibition of the HPP, intravaginal, Herpes type II [7, 15]: 85%
% Lesion inhibition of the HPP, transdermal, Herpes type II [7, 15]: 81%
Interferon level of the HPP, intravaginal (interferon production [8]; 0.5 mg/kg once): 21,857 activity/ml
Interferon level of the HPP, intravaginal (interferon production [8]; 1.5 mg/kg once): 57,147 activity/ml
Interferon level of the HPP, intravaginal (interferon production [8]; 4.5 mg/kg once): 78,569 activity/ml
Interferon level of the HPP, transdermal (interferon production [9]; 0.5 mg/kg once): 11,756 activity/ml
Interferon level of the HPP, transdermal (interferon production [9]; 1.5 mg/kg once): 22,537 activity/ml
Interferon level of the HPP, transdermal (interferon production [9]; 4.5 mg/kg once): 61,758 activity/ml
